Blank lines part the entries; values can stand above or below the compound they belong to. Residues, ends and D or L forms follow the SMILES beside them. *: point of attachment. Boc = CC(C)(C)OC(=O)*
Legend:
[1] = system: SDU70-ΔcorA; assay: Agglutination assay in liquid culture; type: cell-based, Corallococcus exiguus; conditions: for dose dependence of flocculation/agglutination: 1~50 mg/L; for ability to induce agglutination (SAR): each compound added at 5 mg/L
Description: (§1) The agglutination assay basically followed the method described by Velicer.[62] Briefly, DK1622 strains were cultured in CTT medium, whereas SDU70 strains were cultured in VY/2 medium. The aggregation-inducing compounds were added together with the initial inocula. After 3 days of growth, ∼2 mL of liquid cultures (in logarithmic growth stage) were transferred into cuvettes. Samples were left static for 15 min to visualize the clumping phenomenon. To plot the agglutination curves, the absorbance readings (600 nm) were measured on a UV-8000 spectrophotometer at differential intervals within 4 h. Decreasing the absorbance represents the settling of agglutinated cell clumps. Data points are the means of three replicates per strain.

[2] = system: DK1622-wt; assay: Agglutination assay in liquid culture; type: cell-based, Myxococcus xanthus; conditions: for dose dependence of flocculation/agglutination: 1~50 mg/L; for ability to induce agglutination (SAR): each compound added at 5 mg/L
Description: as §1

[3] = system: SDU70-corB; assay: Agglutination assay of corB-overexpression mutant; type: cell-based, Corallococcus exiguus; conditions: as high as 50 mg/L
Description: as §1

[4] = system: SDU70-ΔcorA-corB; assay: Agglutination assay of corB-overexpression mutant; type: cell-based, Corallococcus exiguus; conditions: for morphology on induction: 5 mg/L; for clumping: as high as 50 mg/L
Description: as §1

[5] = system: DK1622-corB; assay: Agglutination assay of corB-overexpression mutant; type: cell-based, Myxococcus xanthus; conditions: for agglutination induced by exogenous addition, in corB-overexpressing strain: 5 mg/L; for threshold concentration causing visible flocculation of DK1622-corB relative to DK1622-wt: 1 or 1b′ (Figures S12–S14)
Description: as §1

[6] = system: Acinetobacter baumannii; assay: Antibacterial assay, agar diffusion method; type: cell-based; conditions: 50 μg/disc
Description: (§2) The white needle crystals of 2 were obtained from MeOH solvent by slowly volatilizing in a glass vial under ambient condition. The X-ray diffraction measurement of crystals basically followed our previously published method.1 The crystallographic data for 2 was summarized […]6, and deposited in CCDC database under the access number 2278050. Antibacterial Assay. The antibacterial assay was performed by agar diffusion method.2 Single colony of Gram-positive bacteria Staphylococcus aureus, Gram-negative bacterium Acinetobacter baumannii, and fungus Candida albicans were picked and inoculated into 8 mL of LB liquid medium for overnight growth at 37 °C, respectively. Next day, the cultures were 100-fold diluted to 1x10^7 CFU/mL with fresh LB liquid medium, to grow at 37 °C until OD600 0.4~0.6. Compounds 1 and 2 were dissolved […] The disks were then placed onto an agar plate containing a soft agar overlay with the indicator microorganisms. Kanamycin (for S. aureus) and apramycin (for C. albicans and E. coli) at a concentration of 1 mg/mL were used as positive controls, and the solvent methanol as the negative control. […] Protease inhibition assay. […] MES, 5 mM DTT, pH 5.5) was detected by proteolysis of fluorescent substrate z-FR-AMC. Enzyme was pre- incubated with a gradient concentration (0~500 μM) of compounds for 60 min at 37 °C in a black 96-well plate. Then, 20 μM of z-FR-AMC was added to each well to make up 200 μ[…] , and the reaction continued for another 30 min. The absorbance was measured by microplate reader (Spectra max GEMINI XPS, excitation wavelength 380 nm, emission wavelength 460 nm). The protease inhibitor E-64 was used as positive control and DMSO was the negative control. All the experiments were completed in triplicate. Enzymatic cleavage of 1 and 1b' using CorB. The reaction was conducted in a 50 μL system comprising of 20 mM Tris-HCl buffer (pH 7.5), 150 mM NaCl, 0.22 mM CorB, and 0.05 mg 1, or 1b' (dissolved in DMSO) respectively. Tris-HCl buffer was used as a negative control, and all experiments were repeated in triplicates. The reactions were incubated at 37 °C for 12 hours and then terminated by adding 50 μL of MeOH. The mixture was centrifuged at 12000 rpm for 20 minutes, and the supernatant was subsequently analyzed HPLC-DAD. MST assay. The purified CorB was mixed with an equal volume of RED-tris-NTA dye solution and incubated in the dark for 30 min, centrifuged at 12000 rpm, 4 °C for 10 min. Then, 10 μL of the CorB-dye complex was mixed with an equal volume of test compound solution ranging from 15.2 μM to 0.5 mM. The resulting samples were collected by capillary tubes and analyzed by Microscale Thermophoresis (Monolith NT.115). 4

[7] = system: Staphylococcus aureus; assay: Antibacterial assay, agar diffusion method; type: cell-based; conditions: 50 μg/disc
Description: as §2

[8] = system: Candida albicans; assay: Agar diffusion assay against fungus; type: cell-based; conditions: 50 μg/disc
Description: (§3) The white needle crystals of 2 were obtained from MeOH solvent by slowly volatilizing in a glass vial under ambient condition. The X-ray diffraction measurement of crystals basically followed our previously published method.1 The crystallographic data for 2 was summarized […]6, and deposited in CCDC database under the access number 2278050. Antibacterial Assay. The antibacterial assay was performed by agar diffusion method.2 Single colony of Gram-positive bacteria Staphylococcus aureus, Gram-negative bacterium Acinetobacter baumannii, and fungus Candida albicans were picked and inoculated into 8 mL of LB liquid medium for overnight growth at 37 °C, respectively. Next day, the cultures were 100-fold diluted to 1x10^7 CFU/mL with fresh LB liquid medium, to grow at 37 °C until OD600 0.4~0.6. Compounds 1 and 2 were dissolved […] The disks were then placed onto an agar plate containing a soft agar overlay with the indicator microorganisms. […] MES, 5 mM DTT, pH 5.5) was detected by proteolysis of fluorescent substrate z-FR-AMC. […] The absorbance was measured by microplate reader (Spectra max GEMINI XPS, excitation wavelength 380 nm, emission wavelength 460 nm). […] The mixture was centrifuged at 12000 rpm for 20 minutes, and the supernatant was subsequently analyzed HPLC-DAD. […] The resulting samples were collected by capillary tubes and analyzed by Microscale Thermophoresis (Monolith NT.115). […]

[9] = Cytotoxic activity on human cell lines; type: cell-based; conditions: A549 lung carcinoma cells, mean value of three replicates
[10] = Cytotoxic activity on human cell lines; type: cell-based; conditions: HepG2 hepatocarcinoma cells, mean value of three replicates
[11] = Cytotoxic activity on human cell lines; type: cell-based; conditions: PC3 prostatic carcinoma cells, mean value of three replicates
[12] = Cytotoxic activity on human cell lines; type: cell-based; conditions: KYSE410 esophageal squamous carcinoma cells, mean value of three replicates
[13] = system: four human cell lines; assay: Antiproliferative activity, summary statement; type: cell-based; conditions: four human cell lines (Table S2)
[14] = system: DK1622-wt; assay: Trypan blue binding assay of EPS production; type: cell-based, Myxococcus xanthus; conditions: DK1622-wt supplemented with 5 mg/L
Description: Exopolysaccharide (EPS) production was measured according to the method published by Black et al.[64] Briefly, wild type and mutant strains of DK1622 were inoculated in liquid CTT medium and incubated for 24 h at 30 °C and 200 rpm. The cells grown to the logarithmic phase were collected by centrifugation, and the supernatants were discarded. Cells were resuspended and adjusted to a density of 5 × 10^8 CFU/mL with TPM buffer (1.97 g/L MgSO4·7H2O, 1 M Tris-HCl, 10 mL 0.1 M PBS, pH 7.6). Next, the cell suspension was evenly mixed with an equal volume of Trypan Blue dye solution (150 μg/mL), and TPM buffer was used as a blank control. The supernatant was centrifuged at 12000 rpm for 5 min, and 200 μL was used for the absorbance measurement at 585 nm. Each experiment was performed in triplicate.

[15] = system: DK1622; assay: Confocal laser scanning microscopy of cells and EPS; type: cell-based, Myxococcus xanthus; conditions: DK1622+1
Description: The microscopic observation of SDU70 and DK1622 basically followed our recently published methods.[63]Scanning electron microscopy (SEM): DK1622 and SDU70 strains (wild type and mutants) were grown to logarithmic stage. The cells were washed three times with 1× PBS buffer and then fixed overnight at 4 °C in 2.5% glutaraldehyde solution. Samples were prepared using the standard ethanol dehydration method,[62] and observed by QUANTA FEG250 scanning electron microscope (Thermo Fisher Scientific, USA). Confocal laser scanning microscopy (CLSM): DK1622 strains were grown in CTT liquid medium for 24 h, while SDU70 strains were grown in VY/2 medium for 72 h. The presence of EPS, eDNA dead cells, and alive cells were labeled with Alexa 350-labeled wheat germ lectin (WGA), SYTOX Orange, and STYO 9, respectively. The images were taken on LSM 900 CLSM (Zeiss, Germany), using 63× oil immersed objective lens. The CLSM images were captured by ZEN software (Zeiss, Germany) and exported by using ImageJ software.

[16] = system: CorB; assay: MST assay of CorB to coralinone A; type: binding, Corallococcus exiguus SDU70; conditions: 15.2 μM to 0.5 mM test compound
Description: as §3

[17] = molecular target: cathepsin L (Homo sapiens, UniProt P07711); assay: Protease inhibition assay (z-FR-AMC proteolysis); type: biochemical; conditions: compounds 0~500 μM, pre-incubated 60 min at 37 °C, pH 5.5; read-out: inhibition activity against protease cathepsin L, IC50
Sequence of cathepsin L (P07711 114-333, species assumed): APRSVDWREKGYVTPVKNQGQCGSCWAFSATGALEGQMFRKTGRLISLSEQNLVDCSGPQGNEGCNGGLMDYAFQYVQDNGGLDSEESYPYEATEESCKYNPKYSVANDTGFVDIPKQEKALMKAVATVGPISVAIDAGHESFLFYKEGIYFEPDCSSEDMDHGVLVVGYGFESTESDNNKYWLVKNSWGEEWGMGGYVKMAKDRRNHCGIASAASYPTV
Description: as §3

Compound: CC(=O)[C@@H](NC(=O)[C@H](CC(C)C)NC(=O)OC(C)(C)C)C(C)C [1b′]
dose dependence of flocculation/agglutination [1]: dose-dependent manner | ability to induce agglutination (SAR) [1]: effective | dose dependence of flocculation/agglutination [2]: dose-dependent manner | ability to induce agglutination (SAR) [2]: effective | clumping [3]: did not clump | morphology on induction [4]: maintained the dispersed morphology | clumping [4]: did not clump | agglutination induced by exogenous addition, in corB-overexpressing strain [5]: substantially abated agglutination | threshold concentration causing visible flocculation of DK1622-corB relative to DK1622-wt [5]: 3–4 times

Compound: Cc1nc(CC(C)C)c(=O)[nH]c1C(C)C [compound 1, coralinone A]
growth inhibition [6]: No growth inhibition | growth inhibition [7]: No growth inhibition | growth inhibition [8]: No growth inhibition | IC50 [9]: 383 µM | IC50 [10]: 892 µM | IC50 [11]: 796 µM | IC50 [12]: 463 µM | antiproliferative activities [13]: Neither 1 nor 2 showed any significant antiproliferative activities | flocculation at 5 mg/L in dose series ([1]; 5 mg/L): severe flocculation | restoration of pellet morphogenesis by chemical complementation ([1]; 5 mg/L, shaken liquid culture): restored | dose dependence of flocculation/agglutination [1]: dose-dependent manner | concentration that started to be active in causing flocculation ([1]; dose series 1~50 mg/L): 2 mg/L | ability to induce agglutination (SAR) [1]: effective | flocculation at 5 mg/L in dose series ([2]; 5 mg/L): severe flocculation | flocculation on exogenous supplementation ([2]; 5 mg/L, liquid culture): led to flocculation | dose dependence of flocculation/agglutination [2]: dose-dependent manner | concentration that started to be active in causing flocculation ([2]; dose series 1~50 mg/L): 2 mg/L | ability to induce agglutination (SAR) [2]: effective | clumping [3]: did not clump | morphology on induction [4]: maintained the dispersed morphology | clumping [4]: did not clump | agglutination induced by exogenous addition, in corB-overexpressing strain [5]: substantially abated agglutination | threshold concentration causing visible flocculation of DK1622-corB relative to DK1622-wt [5]: 3–4 times | EPS production [14]: cumulation of EPS | EPS production (Alexa 350-WGA blue signal in Merge photos) [15]: higher production of EPS | binding to CorB (MST) [16]: did not disturb CorB-dye binding

Compound: CC(=O)O[C@@]12CO[C@@H]1C[C@H](O)[C@@]1(C)C(=O)[C@H](O)C3=C(C)[C@@H](OC(=O)[C@H](O)[C@@H](NC(=O)OC(C)(C)C)c4ccccc4)C[C@@](O)([C@@H](OC(=O)c4ccccc4)[C@H]21)C3(C)C [Docetaxel, reference compound]
IC50 [9]: 33.1 µM | IC50 [10]: 10.3 µM | IC50 [11]: 71.9 µM | IC50 [12]: 17.8 µM

IC50 [17]: 0.23 µM
Compound: CC(C)C[C@H](NC(=O)OC(C)(C)C)C(=O)N[C@H](C=O)C(C)C [10b′] (Boc-Leu-Val-aldehyde)

Compound: CC[C@H](C)c1[nH]c(=O)c(CC(C)C)nc1C [compound 2, coralinone B]
growth inhibition [6]: No growth inhibition | growth inhibition [7]: No growth inhibition | growth inhibition [8]: No growth inhibition | IC50 [9]: 145 µM | IC50 [10]: 504 µM | IC50 [11]: 432 µM | IC50 [12]: 312 µM | antiproliferative activities [13]: Neither 1 nor 2 showed any significant antiproliferative activities

From article PMC10979478, “Deciphering the Biosynthesis and Physiological Function of 5-Methylated Pyrazinones Produced by Myxobacteria” (ACS Central Science, 2024)
